# Patent US9221822B2, “Thiazolopyrimidine modulators as immunosuppressive agents” (Katholieke Universiteit Leuven, K.U.Leuven R&D, priority 2009, dated 2015)
# Tested on: Human peripheral blood mononuclear cells (PBMCs) as Responder cells, RPMI 1788 Stimulator cells
# Experiment: Mixed Lymphocyte Reaction (MLR) test
# Assay type: cell-based
# Conditions: Homo sapiens, RPMI-1788, lowest concentration giving 50% inhibition of the MLR; 6 days coculture, 3H-thymidine incorporation
# Procedure, shortened: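 Proliferation was read as cpm after a 1 μCi ^3H-thymidine pulse on day 5 and harvest 18 h later, then expressed as % inhibition relative to an MLR without compound. The 6-day triplicate cocultures combined 0.12×10^6 Ficoll-isolated human PBMCs with 0.045×10^6 mitomycin C-inactivated RPMI 1788 cells in RPMI 1640 with 10% FCS.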
row,SMILES,IC50
1,"Nc1nc(N2CCN(C(=O)COc3ccc(Br)cc3)CC2)c2nc(CCc3ccc(F)cc3)sc2n1 [Example 52, 1-(4-(5-amino-2-(4-fluorophenethyl)thiazolo[5,4-d]pyrimidin-7-yl)piperazin-1-yl)-2-(4-bromophenoxy)ethanone]",> 10 µM
2,"Nc1nc(N2CCN(C(=O)COc3ccc(Cl)cc3)CC2)c2nc(C3(c4ccc(Cl)cc4)CC3)sc2n1 [Example 117, 5-amino-7-[4-(4-chlorophenoxyacetyl)piperazin-1-yl]-2-(1-(4-chlorophenyl)cyclopropyl)thiazolo[5,4-d]pyrimidine]",2.51 µM
3,"Nc1nc(N2CCN(C(=O)COc3ccc(Cl)cc3)CC2)c2nc(Nc3ccc(F)cc3)sc2n1 [Example 127, 5-amino-7-[4-(4-chlorophenoxyacetyl)piperazin-1-yl]-2-(4-fluorophenylamino)-thiazolo[5,4-d]pyrimidine]",6.77 µM
4,"Cc1cccc(NC(=O)N2CCCN(c3nc(N)nc4[nH]c(-c5ccc(F)cc5)nc34)CC2)c1 [Example 422, 4-(2-amino-8-(4-fluorophenyl)-9H-purin-6-yl)-N-m-tolyl-1,4-diazepane-1-carboxamide]",1.18 µM
5,"CCCCCc1nc2c(N3CCN(C(=O)COc4ccc(Cl)cc4)CC3)nc(N)nc2o1 [Example 188, 5-amino-7-[4-(4-chlorophenoxyacetyl)piperazin-1-yl]-2-pentyloxazolo[5,4-d]pyrimidine]",4.43 µM
6,"Cc1cccc(NC(=O)N2CCN(c3nc(N)nc4sc(-c5ccc(F)cc5)nc34)CC2)c1 [Example 43, 4-(5-amino-2-(4-fluorophenyl)thiazolo[5,4-d]pyrimidin-7-yl)-N-m-tolylpiperazine-1-carboxamide]",0.3 µM
7,"CSc1nc2c(N3CCN(C(=O)COc4ccc(Cl)cc4)CC3)nc(N)nc2s1 [Example 115, 5-amino-7-[4-(4-chlorophenoxyacetyl)piperazin-1-yl]-2-methylthio-thiazolo[5,4-d]pyrimidine]",> 10 µM
8,"Nc1nc(N2CCN(c3nccs3)CC2)c2nc(-c3ccc(F)cc3)sc2n1 [Example 36, 2-(4-fluorophenyl)-7-(4-(thiazol-2-yl)piperazin-1-yl)thiazolo[5,4-d]pyrimidin-5-amine]",> 10 µM
9,"Nc1nc(N2CCN(Cc3ccccc3)CC2)c2nc(-c3ccc(F)cc3)sc2n1 [Example 39, 7-(4-benzylpiperazin-1-yl)-2-(4-fluorophenyl)thiazolo[5,4-d]pyrimidin-5-amine]",> 10 µM
10,"Nc1nc(N2CCN(C(=O)COc3ccc(Cl)cc3)CC2)c2nc(C3CC3)sc2n1 [Example 119, 5-amino-2-cyclopropyl-7-[4-(4-chlorophenoxyacetyl)piperazin-1-yl]-thiazolo[5,4-d]pyrimidine]",0.6 µM
11,"Cc1cc(Cl)ccc1OCC(=O)N1CCN(c2nc(N)nc3sc(-c4ccc(F)cc4)nc23)CC1 [Example 213, 1-(4-(5-amino-2-(4-fluorophenyl)thiazolo[5,4-d]pyrimidin-7-yl)piperazin-1-yl)-2-(4-chloro-2-methylphenoxy)ethanone]",0.219 µM
12,"Nc1nc(N2CCN(S(=O)(=O)Cc3ccccc3)CC2)c2cc(-c3ccc(F)cc3)sc2n1 [Example 344, 4-(4-(benzylsulfonyl)piperazin-1-yl)-6-(4-fluorophenyl)thieno[2,3-d]pyrimidin-2-amine]",> 10 µM
13,"CN(C(=O)CN1CCN(c2nc(N)nc3[nH]c(-c4ccc(F)cc4)nc23)CC1)c1ccccc1 [Example 413, 2-(4-(2-amino-8-(4-fluorophenyl)-9H-purin-6-yl)piperazin-1-yl)-N-methyl-N-phenylacetamide]",> 10 µM
14,"Nc1nc(N2CCN(C(=O)C3CCCCC3)CC2)c2cc(-c3ccc(F)cc3)sc2n1 [Example 345, (4-(2-amino-6-(4-fluorophenyl)thieno[2,3-d]pyrimidin-4-yl)piperazin-1-yl)(cyclohexyl)methanone]",> 10 µM
15,"Cc1nc(N2CCN(C(=O)COc3ccc(Cl)cc3)CC2)c2cc(-c3ccc(F)cc3)sc2n1 [Example 325, 2-(4-chlorophenoxy)-1-(4-(6-(4-fluorophenyl)-2-methylthieno[2,3-d]pyrimidin-4-yl)piperazin-1-yl)ethanone]",3.39 µM
16,"COc1ccc(OCC(=O)N2CCN(c3nc(N)nc4sc(CCCCc5ccc(F)cc5)nc34)CC2)cc1 [Example 293, 1-(4-(5-amino-2-(4-(4-fluorophenyl)butyl)thiazolo[5,4-d]pyrimidin-7-yl)piperazin-1-yl)-2-(4-methoxyphenoxy)ethanone]",0.93 µM
17,"Nc1nc(N2CCN(C(=O)CCc3ccc(Br)cc3)CC2)c2nc(CCc3ccc(F)cc3)sc2n1 [Example 223, 1-(4-(5-amino-2-(4-fluorophenethyl)thiazolo[5,4-d]pyrimidin-7-yl)piperazin-1-yl)-3-(4-bromophenyl)propan-1-one]",> 10 µM

row,SMILES,IC50
1,"Nc1nc(N2CCN(S(=O)(=O)Cc3ccccc3)CC2)c2nc(CCc3ccc(F)cc3)sc2n1 [Example 137, 5-amino-2-[2-(4-fluorophenyl)ethyl]-7-[4-phenylmethanesulfonylpiperazin-1-yl]-thiazolo[5,4-d]pyrimidine]",6.68 µM
2,"N#Cc1ccc(NC(=O)N2CCN(c3nc(N)nc4sc(-c5cccnc5)nc34)CC2)cc1 [Example 279, 4-(5-amino-2-(pyridin-3-yl)thiazolo[5,4-d]pyrimidin-7-yl)-N-(4-cyanophenyl)piperazine-1-carboxamide]",0.1 µM
3,"O=C(COc1ccc(Cl)cc1)N1CCN(c2ncnc3sc(-c4ccc(F)cc4)cc23)CC1 [Example 312, 2-(4-chlorophenoxy)-1-(4-(6-(4-fluorophenyl)thieno[2,3-d]pyrimidin-4-yl)piperazin-1-yl)ethanone]",6.35 µM
4,"Nc1nc(N2CCN(C(=O)COc3ccc(Cl)cc3)CC2)c2nc(-c3ccc(Cl)cc3)[nH]c2n1 [Example 392, 1-(4-(2-amino-8-(4-chlorophenyl)-9H-purin-6-yl)piperazin-1-yl)-2-(4-chlorophenoxy)ethanone]",0.54 µM
5,"Nc1nc(N2CCN(C(=O)COc3ccc(Cl)cc3)CC2)c2nc(C3CCCCC3)oc2n1 [Example 187, 5-amino-2-cyclohexyl-7-[4-(4-chlorophenoxyacetyl)piperazin-1-yl]oxazolo[5,4-d]pyrimidine]",> 10 µM
6,"CSc1nc2c(N3CCN(C(=O)COc4ccc(Cl)cc4)CC3)nc(N)nc2[nH]1 [Example 424, 1-(4-(2-amino-8-(methylthio)-9H-purin-6-yl)piperazin-1-yl)-2-(4-chlorophenoxy)ethanone]",0.61 µM
7,"COc1ccc(OCC(=O)N2CCN(c3nc(N)nc4sc(-c5ccc(C)cc5)nc34)CC2)cc1 [Example 294, 1-(4-(5-amino-2-p-tolylthiazolo[5,4-d]pyrimidin-7-yl)piperazin-1-yl)-2-(4-methoxyphenoxy)ethanone]",0.75 µM
8,"CC(C)(Oc1ccc(Cl)cc1)C(=O)N1CCN(c2nc(N)nc3sc(-c4cccnc4)nc23)CC1 [Example 274, 1-(4-(5-amino-2-(pyridin-3-yl)thiazolo[5,4-d]pyrimidin-7-yl)piperazin-1-yl)-2-(4-chlorophenoxy)-2-methylpropan-1-one]",> 10 µM
9,"Cc1cccc(NC(=O)N2CCN(c3nc(N)nc4sc(-c5ccc(F)cc5)cc34)CC2)c1 [Example 359, 4-(2-amino-6-(4-fluorophenyl)thieno[2,3-d]pyrimidin-4-yl)-N-m-tolylpiperazine-1-carboxamide]",2.8 µM
10,"CCOC(=O)c1nc(N2CCN(C(=O)COc3ccc(Cl)cc3)CC2)c2cc(-c3ccc(F)cc3)sc2n1 [Example 353, ethyl 4-(4-(2-(4-chlorophenoxy)acetyl)piperazin-1-yl)-6-(4-fluorophenyl)thieno[2,3-d]pyrimidine-2-carboxylate]",> 10 µM
11,"CC(c1ccc(F)cc1)c1nc2c(N3CCN(C(=O)COc4ccc(Cl)cc4)CC3)nc(N)nc2s1 (stereo not drawn) [Example 66, 1-(4-(5-amino-2-(1-(4-fluorophenyl)ethyl)thiazolo[5,4-d]pyrimidin-7-yl)piperazin-1-yl)-2-(4-chlorophenoxy)ethanone]",4.38 µM
12,"Nc1nc(N2CCN(C(=O)COc3ccc(F)cc3)CC2)c2nc(-c3ccc(F)cc3)sc2n1 [Example 233, 1-(4-(5-amino-2-(4-fluorophenyl)thiazolo[5,4-d]pyrimidin-7-yl)piperazin-1-yl)-2-(4-fluorophenoxy)ethanone]",0.074 µM
13,"Nc1nc(N2CCN(C(=O)COc3ccc(Cl)cc3)CC2)c2nc(-c3ccc(Cl)cc3)sc2n1 [Example 123, 5-amino-7-[4-(4-chlorophenoxyacetyl)piperazin-1-yl]-2-(4-chlorophenyl)thiazolo[5,4-d]pyrimidine]",0.26 µM
14,"Nc1nc(N2CCN(C(=O)COc3ccc(Cl)cc3)CC2)c2nc(-c3ccc(F)cc3)n(Cc3ccccc3)c2n1 [Example 431, 1-(4-(2-amino-9-benzyl-8-(4-fluorophenyl)-9H-purin-6-yl)piperazin-1-yl)-2-(4-chlorophenoxy)ethanone]",> 10 µM
15,"Nc1nc(N2CCN(CC(=O)Nc3cccnc3)CC2)c2nc(-c3ccc(F)cc3)[nH]c2n1 [Example 412, 2-(4-(2-amino-8-(4-fluorophenyl)-9H-purin-6-yl)piperazin-1-yl)-N-(pyridin-3-yl)acetamide]",8.61 µM
16,"COc1ccc(-c2nc3c(N4CCN(C(=O)COc5ccc(Cl)cc5)CC4)nc(N)nc3[nH]2)cc1OC [Example 390, 1-(4-(2-amino-8-(3,4-dimethoxyphenyl)-9H-purin-6-yl)piperazin-1-yl)-2-(4-chlorophenoxy)ethanone]",0.53 µM
17,"Nc1nc(N2CCN(S(=O)(=O)Cc3ccccc3)CC2)c2nc(-c3ccc(F)cc3)[nH]c2n1 [Example 405, 6-(4-(benzylsulfonyl)piperazin-1-yl)-8-(4-fluorophenyl)-9H-purin-2-amine]",> 10 µM

# Same assay, conditions: lowest concentration giving 50% inhibition of the MLR; 6 days coculture, 3H-thymidine incorporation
row,SMILES,IC50
1,"COCCCNc1nc(N)nc2sc(-c3ccc(F)cc3)nc12 [Example 32, 2-(4-fluorophenyl)-N-7-(3-methoxypropyl)thiazolo[5,4-d]pyrimidine-5,7-diamine]",> 10 µM
2,Nc1nc(N2CCN(c3ccncc3)CC2)c2nc(-c3ccc(F)cc3)[nH]c2n1 [Example 419],> 10 µM
